What was measured:
[1] = target: Dual specificity protein kinase CLK3 (Homo sapiens) (UniProt P49761); test: Inhibition of CLK3 (unknown origin) assessed as remaining activity at 1 uM by Kinome scan method relative to control
[2] = target: Casein kinase I isoform gamma-2 (Homo sapiens) (UniProt P78368); test: Inhibition of CSNK1G2 (unknown origin) assessed as remaining activity at 1 uM by Kinome scan method relative to control
[3] = target: Receptor tyrosine-protein kinase erbB-3 (Homo sapiens) (UniProt P21860); test: Inhibition of ERBB3 (unknown origin) assessed as remaining activity at 1 uM by Kinome scan method relative to control
[4] = test system: Receptor-type tyrosine-protein kinase FLT3 (Homo sapiens), P36888 [D835H]; test: Inhibition of FLT3 D835H mutant (unknown origin) assessed as remaining activity at 1 uM by Kinome scan method relative to control
[5] = target: Glycogen synthase kinase-3 alpha (Homo sapiens) (UniProt P49840); test: Inhibition of GSK3alpha (unknown origin) assessed as remaining activity at 1 uM by Kinome scan method relative to control
[6] = target: Homeodomain-interacting protein kinase 1 (Homo sapiens) (UniProt Q86Z02); test: Inhibition of HIPK1 (unknown origin) assessed as remaining activity at 1 uM by Kinome scan method relative to control
[7] = test system: Phosphatidylinositol 4,5-bisphosphate 3-kinase catalytic subunit alpha isoform (Homo sapiens), P42336 [H1047Y]; test: Inhibition of PIK3CA H1047Y mutant (unknown origin) assessed as remaining activity at 1 uM by Kinome scan method relative to control
[8] = target: Ribosomal protein S6 kinase alpha-5 (Homo sapiens) (UniProt O75582); test: Inhibition of C-terminal kinase domain RPS6KA5 (unknown origin) assessed as remaining activity at 1 uM by Kinome scan method relative to control
[9] = target: Cytoplasmic tyrosine-protein kinase BMX (Homo sapiens) (UniProt P51813); test: Inhibition of human BMX assessed as residual activity at 1 uM using polyEy as substrate in presence of 33P-ATP by ProQinase assay relative to control
[10] = target: Calcium/calmodulin-dependent protein kinase type 1D (Homo sapiens) (UniProt Q8IU85); test: Inhibition of human CAMK1D assessed as residual activity at 1 uM using RBER-CHKtide as substrate in presence of 33P-ATP by ProQinase assay relative to control
Homo sapiens [11] = species: Homo sapiens; test: Inhibition of human CDK1/CycA2 assessed as residual activity at 1 uM using RBER-CHKtide as substrate in presence of 33P-ATP by ProQinase assay relative to control
[12] = target: Serine/threonine-protein kinase Chk2 (Homo sapiens) (UniProt O96017); test: Inhibition of human CHK2 assessed as residual activity at 1 uM using bio-4xCHKT as substrate in presence of 33P-ATP by ProQinase assay relative to control
[13] = target: T1, Serine/threonine-protein kinase Nek1 (Homo sapiens) (UniProt Q96PY6); test: Inhibition of human NEK1 assessed as residual activity at 1 uM using RBER-CHKtide as substrate in presence of 33P-ATP by ProQinase assay relative to control
T1 sequence (whole entry): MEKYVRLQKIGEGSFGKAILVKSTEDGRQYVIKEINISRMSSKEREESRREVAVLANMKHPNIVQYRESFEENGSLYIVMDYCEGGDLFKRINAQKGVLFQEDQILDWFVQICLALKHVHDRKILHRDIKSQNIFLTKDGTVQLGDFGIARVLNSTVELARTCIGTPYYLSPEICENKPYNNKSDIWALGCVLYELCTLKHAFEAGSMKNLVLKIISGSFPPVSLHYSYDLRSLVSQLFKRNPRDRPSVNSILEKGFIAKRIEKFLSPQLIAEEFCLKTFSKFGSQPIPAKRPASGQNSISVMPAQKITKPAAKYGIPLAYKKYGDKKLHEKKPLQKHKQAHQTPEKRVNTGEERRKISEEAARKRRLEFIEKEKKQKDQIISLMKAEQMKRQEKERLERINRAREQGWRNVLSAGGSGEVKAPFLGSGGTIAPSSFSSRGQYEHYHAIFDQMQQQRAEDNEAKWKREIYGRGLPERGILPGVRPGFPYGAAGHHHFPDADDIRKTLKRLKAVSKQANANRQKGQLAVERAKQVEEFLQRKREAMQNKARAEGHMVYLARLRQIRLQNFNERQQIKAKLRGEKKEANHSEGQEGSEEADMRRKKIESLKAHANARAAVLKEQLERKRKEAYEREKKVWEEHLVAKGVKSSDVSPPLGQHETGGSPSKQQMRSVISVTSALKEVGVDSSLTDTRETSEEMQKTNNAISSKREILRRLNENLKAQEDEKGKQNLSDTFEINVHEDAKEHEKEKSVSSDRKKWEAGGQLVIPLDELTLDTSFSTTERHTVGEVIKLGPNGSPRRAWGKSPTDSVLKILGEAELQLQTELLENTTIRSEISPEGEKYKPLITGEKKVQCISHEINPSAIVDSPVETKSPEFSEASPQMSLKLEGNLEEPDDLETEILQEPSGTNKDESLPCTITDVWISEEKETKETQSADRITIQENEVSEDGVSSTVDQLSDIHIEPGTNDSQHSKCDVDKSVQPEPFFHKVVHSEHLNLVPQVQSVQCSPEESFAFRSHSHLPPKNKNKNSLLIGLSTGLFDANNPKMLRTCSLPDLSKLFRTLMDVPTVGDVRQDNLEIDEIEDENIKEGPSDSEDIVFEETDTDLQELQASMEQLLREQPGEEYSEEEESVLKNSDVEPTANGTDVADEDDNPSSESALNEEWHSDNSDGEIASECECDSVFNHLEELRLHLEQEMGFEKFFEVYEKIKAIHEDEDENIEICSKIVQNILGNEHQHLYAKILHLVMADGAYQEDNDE

[14] = target: Phosphorylase b kinase gamma catalytic chain, skeletal muscle/heart isoform (Homo sapiens) (UniProt Q16816); test: Inhibition of human PHKG1 assessed as residual activity at 1 uM using 3xChocktide-PKC as substrate in presence of 33P-ATP by ProQinase assay relative to control
Homo sapiens [15] = species: Homo sapiens; test: Inhibition of human PKA assessed as residual activity at 1 uM using bio-4xCHKT as substrate in presence of 33P-ATP by ProQinase assay relative to control
[16] = target: Proto-oncogene tyrosine-protein kinase receptor Ret (Homo sapiens) (UniProt P07949); test: Inhibition of human RET assessed as residual activity at 1 uM using polyEY as substrate in presence of 33P-ATP by ProQinase assay relative to control

Sequence of Phosphorylase b kinase gamma catalytic chain, skeletal muscle/heart isoform (Homo sapiens) (Q16816 whole entry, looked up, canonical isoform): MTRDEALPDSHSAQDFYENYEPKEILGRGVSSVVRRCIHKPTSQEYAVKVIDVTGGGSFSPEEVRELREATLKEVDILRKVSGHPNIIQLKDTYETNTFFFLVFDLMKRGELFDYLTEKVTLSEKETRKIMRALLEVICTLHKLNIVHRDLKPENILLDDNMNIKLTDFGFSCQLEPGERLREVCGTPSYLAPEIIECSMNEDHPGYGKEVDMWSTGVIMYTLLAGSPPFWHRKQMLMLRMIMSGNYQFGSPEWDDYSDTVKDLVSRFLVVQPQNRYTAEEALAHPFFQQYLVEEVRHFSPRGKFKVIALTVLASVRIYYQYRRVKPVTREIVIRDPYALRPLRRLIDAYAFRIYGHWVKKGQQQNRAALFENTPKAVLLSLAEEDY
Sequence of Dual specificity protein kinase CLK3 (Homo sapiens) (P49761 whole entry, looked up, canonical isoform): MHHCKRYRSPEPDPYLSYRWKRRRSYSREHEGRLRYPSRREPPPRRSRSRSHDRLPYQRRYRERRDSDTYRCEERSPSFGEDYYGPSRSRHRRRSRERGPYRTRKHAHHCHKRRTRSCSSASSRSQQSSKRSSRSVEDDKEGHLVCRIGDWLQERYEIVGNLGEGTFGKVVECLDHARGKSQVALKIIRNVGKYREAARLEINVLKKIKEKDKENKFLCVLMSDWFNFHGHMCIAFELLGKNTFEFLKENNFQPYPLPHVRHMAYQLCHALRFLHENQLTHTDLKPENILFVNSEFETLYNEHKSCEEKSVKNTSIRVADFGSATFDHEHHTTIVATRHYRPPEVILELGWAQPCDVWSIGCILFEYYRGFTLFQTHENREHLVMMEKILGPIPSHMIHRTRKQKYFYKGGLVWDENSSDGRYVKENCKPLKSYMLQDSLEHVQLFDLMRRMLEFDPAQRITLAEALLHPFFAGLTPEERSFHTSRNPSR
Sequence of Casein kinase I isoform gamma-2 (Homo sapiens) (P78368 whole entry, looked up, canonical isoform): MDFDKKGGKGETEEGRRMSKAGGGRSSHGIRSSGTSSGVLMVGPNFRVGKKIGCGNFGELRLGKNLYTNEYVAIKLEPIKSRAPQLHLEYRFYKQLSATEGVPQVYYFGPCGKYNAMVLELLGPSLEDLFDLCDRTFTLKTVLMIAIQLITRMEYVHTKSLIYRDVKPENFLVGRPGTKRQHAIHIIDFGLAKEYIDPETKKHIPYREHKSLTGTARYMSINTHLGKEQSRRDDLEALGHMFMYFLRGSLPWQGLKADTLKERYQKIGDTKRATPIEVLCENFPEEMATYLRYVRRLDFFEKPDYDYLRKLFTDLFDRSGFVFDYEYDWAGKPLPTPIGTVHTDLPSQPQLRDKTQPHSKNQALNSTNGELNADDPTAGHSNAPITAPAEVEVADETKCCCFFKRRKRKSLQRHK
Sequence of Serine/threonine-protein kinase Chk2 (Homo sapiens) (O96017 whole entry): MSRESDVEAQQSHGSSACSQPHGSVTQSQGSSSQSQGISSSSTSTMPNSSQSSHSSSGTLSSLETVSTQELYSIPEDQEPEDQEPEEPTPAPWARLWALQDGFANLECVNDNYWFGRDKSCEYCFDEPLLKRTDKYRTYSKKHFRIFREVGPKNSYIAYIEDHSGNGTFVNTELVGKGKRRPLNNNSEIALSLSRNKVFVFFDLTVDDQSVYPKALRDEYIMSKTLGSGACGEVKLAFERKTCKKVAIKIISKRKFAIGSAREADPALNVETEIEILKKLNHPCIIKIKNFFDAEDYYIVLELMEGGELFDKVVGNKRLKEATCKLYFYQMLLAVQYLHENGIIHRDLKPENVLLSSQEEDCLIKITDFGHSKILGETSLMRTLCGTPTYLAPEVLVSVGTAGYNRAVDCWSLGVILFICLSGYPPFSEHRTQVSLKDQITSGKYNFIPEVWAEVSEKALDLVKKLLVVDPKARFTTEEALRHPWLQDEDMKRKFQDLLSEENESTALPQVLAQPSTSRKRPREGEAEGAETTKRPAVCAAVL
Sequence of Cytoplasmic tyrosine-protein kinase BMX (Homo sapiens) (P51813 whole entry): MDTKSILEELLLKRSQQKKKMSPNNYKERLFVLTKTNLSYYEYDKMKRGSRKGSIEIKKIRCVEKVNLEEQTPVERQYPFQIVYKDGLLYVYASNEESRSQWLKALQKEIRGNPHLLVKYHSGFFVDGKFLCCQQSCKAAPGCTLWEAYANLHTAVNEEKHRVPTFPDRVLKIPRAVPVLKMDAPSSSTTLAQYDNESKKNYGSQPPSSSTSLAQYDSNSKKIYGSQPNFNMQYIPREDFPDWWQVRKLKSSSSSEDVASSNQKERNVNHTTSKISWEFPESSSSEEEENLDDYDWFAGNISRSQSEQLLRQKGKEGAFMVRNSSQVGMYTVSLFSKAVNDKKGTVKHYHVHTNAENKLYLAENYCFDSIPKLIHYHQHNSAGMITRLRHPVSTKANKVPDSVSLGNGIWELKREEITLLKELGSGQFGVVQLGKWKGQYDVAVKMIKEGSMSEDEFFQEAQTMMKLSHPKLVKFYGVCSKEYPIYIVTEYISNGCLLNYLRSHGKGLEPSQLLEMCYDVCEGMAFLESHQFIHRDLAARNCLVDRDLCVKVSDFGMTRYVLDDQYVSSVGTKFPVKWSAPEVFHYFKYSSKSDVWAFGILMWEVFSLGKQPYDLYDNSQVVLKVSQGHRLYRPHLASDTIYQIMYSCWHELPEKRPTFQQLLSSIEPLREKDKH
Sequence of Calcium/calmodulin-dependent protein kinase type 1D (Homo sapiens) (Q8IU85 whole entry, looked up): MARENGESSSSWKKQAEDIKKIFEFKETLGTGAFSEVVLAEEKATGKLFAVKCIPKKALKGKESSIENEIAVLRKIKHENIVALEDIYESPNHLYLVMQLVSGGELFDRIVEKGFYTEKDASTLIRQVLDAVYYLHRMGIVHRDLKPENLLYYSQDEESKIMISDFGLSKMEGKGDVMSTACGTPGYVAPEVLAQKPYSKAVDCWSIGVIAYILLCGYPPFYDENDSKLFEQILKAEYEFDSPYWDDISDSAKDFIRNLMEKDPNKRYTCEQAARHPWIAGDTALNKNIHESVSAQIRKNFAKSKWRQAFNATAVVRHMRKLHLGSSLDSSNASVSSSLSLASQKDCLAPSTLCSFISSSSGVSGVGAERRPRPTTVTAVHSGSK
Sequence of Glycogen synthase kinase-3 alpha (Homo sapiens) (P49840 2-483 limits assumed): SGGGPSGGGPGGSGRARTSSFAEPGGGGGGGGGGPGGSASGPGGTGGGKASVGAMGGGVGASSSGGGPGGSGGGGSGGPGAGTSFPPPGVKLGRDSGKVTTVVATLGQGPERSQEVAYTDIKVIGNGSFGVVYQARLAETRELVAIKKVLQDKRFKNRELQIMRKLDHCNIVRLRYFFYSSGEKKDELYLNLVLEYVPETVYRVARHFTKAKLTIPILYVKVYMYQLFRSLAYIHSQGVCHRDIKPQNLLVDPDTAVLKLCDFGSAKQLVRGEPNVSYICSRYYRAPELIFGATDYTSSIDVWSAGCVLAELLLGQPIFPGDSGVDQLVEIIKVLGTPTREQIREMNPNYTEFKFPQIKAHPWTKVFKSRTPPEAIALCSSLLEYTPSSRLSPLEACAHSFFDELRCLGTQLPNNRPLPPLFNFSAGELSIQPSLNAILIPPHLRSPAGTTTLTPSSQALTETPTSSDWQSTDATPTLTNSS
Sequence of Ribosomal protein S6 kinase alpha-5 (Homo sapiens) (O75582 whole entry, looked up, the tested form may be a part): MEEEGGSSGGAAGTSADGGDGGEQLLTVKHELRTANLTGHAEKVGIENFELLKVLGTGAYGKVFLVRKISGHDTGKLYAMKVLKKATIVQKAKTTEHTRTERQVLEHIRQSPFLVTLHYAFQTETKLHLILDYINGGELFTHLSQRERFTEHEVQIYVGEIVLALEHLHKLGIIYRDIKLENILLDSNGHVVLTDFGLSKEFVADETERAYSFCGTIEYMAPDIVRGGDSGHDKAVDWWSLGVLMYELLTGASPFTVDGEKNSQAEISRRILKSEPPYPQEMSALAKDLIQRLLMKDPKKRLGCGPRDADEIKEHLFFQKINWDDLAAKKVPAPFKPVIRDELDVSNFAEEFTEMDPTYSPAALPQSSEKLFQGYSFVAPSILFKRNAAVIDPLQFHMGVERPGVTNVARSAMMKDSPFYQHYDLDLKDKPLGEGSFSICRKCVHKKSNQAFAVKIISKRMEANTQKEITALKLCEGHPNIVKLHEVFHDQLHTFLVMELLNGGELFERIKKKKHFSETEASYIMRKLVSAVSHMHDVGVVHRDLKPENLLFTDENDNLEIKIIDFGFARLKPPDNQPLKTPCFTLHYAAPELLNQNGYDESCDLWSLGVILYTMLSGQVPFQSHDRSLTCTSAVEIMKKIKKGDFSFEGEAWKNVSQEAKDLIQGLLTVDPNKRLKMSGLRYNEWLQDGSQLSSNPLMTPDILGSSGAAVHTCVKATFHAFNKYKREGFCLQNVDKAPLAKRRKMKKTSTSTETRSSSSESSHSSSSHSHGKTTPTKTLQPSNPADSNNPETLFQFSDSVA

Q: Which results are given for O=C1c2ccc(Nc3ccc(F)cc3F)cc2CCc2ccc(OC[C@H](O)CO)cc21 [Skepinone-L]?
A: Activity [1]: 96%; Activity [2]: 100%; Activity [3]: 100%; Activity [4]: 88%; Activity [5]: 100%; Activity [6]: 100%; Activity [7]: 100%; Activity [8]: 92%; Activity [9]: 108%; Activity [10]: 106%; Activity (Homo sapiens [11]): 98%; Activity [12]: 89%; Activity [13]: 83%; Activity [14]: 93%; Activity (Homo sapiens [15]): 94%; Activity [16]: 102%
